The text below walks through data of PMC12655744, “From Bench to Bioactivity: An Integrated Medicinal Development Based on Kinetic and Simulation Assessment of Pyrazolone-Oxadiazole Coupled Benzamide as Promising Inhibitors of Diabetes Mellitus” (Pharmaceuticals, 2025).

The term IC50 denotes the midpoint of a concentration-inhibition curve.

Common to all, as to assay type: biochemical
One assay has as its target alpha-amylase. Briefly: Alpha-amylase activity assay (starch/DNS, 540 nm). The following applies: mean ± SEM; read-out: IC50 = α-amylase µM ± SEM. The protocol: % inhibition = (Abs control − Abs sample) × 100
S.3 Alpha-Amylase Activity Assay:
The inhibitory potential of α-Amylase enzyme was evaluated through the standard methodology. A test tube containing (250 µL) of the compound being tested at various concentrations (50–250 µg/mL), (250 µL) of [1% (w/v)] starch solution, and (250 µL) of (1U/mL) alpha-amylase solution was prepared. Post-incubation at 20ᵒC for 3 min, the en-zymatic process was halted by adding (500 µL) of dinitro salicylic acid (color Reagent).
Following this, (250 µL) of α-amylase was immediately introduced after heating the mix-ture in hot water. The mixture was subsequently subjected to heating at 85 ᵒC for duration of 15 min, followed by a 5-min incubation period at room temperature. (4500 µL) of dis-tilled water was added, resulting in a final volume of (6000 µL). Spectrophotometric anal-ysis at 540 nm was conducted to determine absorbance. A control sample devoid of the […]
equation is used for calculation. […]
(§1) Radius of 12 Å around the Montbretin A binding site was defined for enzyme active site. Accomplishment of docking calculations was achieved using Chem PLP scoring function.
(§2) The geometric parameters and energies were computed by density functional theory at the B3LYP/CEP-631G level of theory, using the […] 98W package of the pro- […]
(§3) grams, on geometries that were optimized at CEP-631G basis set.

The target of another assay is alpha-glucosidase. In words: Alpha-glucosidase inhibition assay (absorbance 405 nm). Conditions: mean ± SEM; read-out: IC50 = α-glucosidase µM ± SEM. The protocol:
100 µL. The reaction was […] by adding 100 µL of sodium carbonate (200 mM). The absorbance at 405 nm was measured using a microplate reader. This experimental proce-dure was conducted in triplicate, and a control group without the tested compound was included for comparison. […] The percentage […]
inhibition was calculated using the following equation, where “Abs” represents absorb- […]
% inhibition = (Abs control − Abs sample) × 100 […]
as §1, §2, §3

For a further assay, the system named is diabetes enzymes. In words: Enzyme kinetic studies (mode of inhibition). The following applies: Figure 8. The text has this:
Enzyme kinetics studies provide the most vital information for how drugs work against the disease, such as binding of the inhibitor with its target, and the concentration required to achieve the desired effects. This study explains that the amount of the drug will be affected, slowing down the biological process. The different patterns for slowing down a process are obtained in the form of curves or slopes. This also provides how various forms of inhibitors or derivatives cause the reaction kinetics to slow in unique ways by adding more inhibitors. […] The substitution of unique functional groups in various sites of the phenyl ring might be responsible for its remarkable efficiency. The graphical curves in Figure 8 show the direct competition of the analog against the substrate for the same spot on the enzyme. […]
100 µL. […] The absorbance at 405 nm was measured using a microplate reader. […] The percentage inhibition was calculated using the following equation, where “Abs” represents absorb- […]
The inhibitory potential of α-Amylase enzyme was evaluated through the standard methodology. […]
Following this, (250 µL) of α-amylase was immediately introduced after heating the mix-ture in hot water. […] Spectrophotometric anal-ysis at 540 nm was conducted to determine absorbance. […]

As to `Cc1ccc(Cl)c(C(=O)Nc2nnc(NC3=CC(=O)N=N3)o2)c1` [Compound 8], the IC50 on alpha-amylase amounted to 11.7 ± 0.2 µM; on alpha-glucosidase, 12.1 ± 0.1 µM.

For `O=C1C=C(Nc2nnc(NC(=O)c3ccc(Br)cc3)o2)N=N1` [Compound 9], the figures for the IC50 at alpha-amylase and at alpha-glucosidase were 15.3 ± 0.1 µM and 16.1 ± 0.2 µM, respectively.

On to `O=C1C=C(Nc2nnc(NC(=O)c3c(O)cc(O)cc3O)o2)N=N1` [Compound 3], for which the concentration for half-maximal inhibition (IC50) on alpha-amylase was 3.2 ± 0.2 µM; at alpha-glucosidase it was 3.6 ± 0.1 µM. Besides, the Mode of inhibition result in the assay on diabetes enzymes is “competitive inhibitor”.
